According to patent publication US7326540B2, “Methods for identifying compounds that modulate stabilization of secretase-associated proteins” (priority 2003, dated 2008):

Tests used:
[1] = test system: Aβ production in CHO cells overexpressing APP751 and PS1 WT; assay: Secreted Aβ ELISA in CHO cells overexpressing APP751 and PS1 during induced apoptosis; format: cell-based, Chinese Hamster; details: etoposide 100 μg/mL, 12 hrs
Experimental: We examined Aβ generation induced by apoptosis in CHO cell lines. We used CHO cell lines stably overexpressing both APP751 and PS1 WT. For the induction of apoptosis, we used 1 μM staurosporine (STS) in serum free media. Secreted Aβ was measured in the conditioned media of cells treated with STS for 6 hrs using a sensitive ELISA assay [courtesy of Dr. Dennis Selkoe; M. S. Wolfe et al., Nature 398, 513-7 (1999)].
Treatment with either STS for 6 hrs or etoposide for 12 hrs induced from 10 to 20% of cell death assayed by MTT assay, which is a colorimetric short-term suspension culture assay in which the yellow tetrazolium salt (MTT) is reduced in metabolically active cells to form insoluble purple formazan crystals, which are solubilized by the addition of a detergent.
Chinese Hamster Ovary (CHO) cells expressing APP751 and BACE (CAB), CHO cells expressing full-length APP and wild-type PS1 (CHO-APP751/PS1) or expressing C99 and wild-type PS1 (CHO-CC99/PS1), H4 human neuroglioma cells expressing APP751 (H4-APP751), mouse embryonic fibroblast (MEF), embryonic stem (ES) cells, and human epithelial A431 cells were grown as described previously (Marambaud, P. et al., Embo J 21, 1948-56 (2002); Cai, H. et al., Nat Neurosci 4, 233-4 (2001); Sato, N. et al., Nat Cell Biol 2, 863-70 (2000); Puglielli, L., Ellis, B. C., Saunders, A. J. & Kovacs, D. M., J Biol Chem 278, 19777-83 (2003); Wolfe, M. S. et al., Nature 398, 513-7 (1999)). For the induction of apoptosis, we used staurosporine or etoposide (Calbiochem (EMD Biosciences, San Diego, Calif.)). For Aβ measurements, cells were seeded at the density of 0.5×10^6 cells per well in 6 well plates. After 48 hours, cells were treated with either STS (1 μM) for 6 hours. […] For time-course experiments, cells were seeded at the density of 2×10^6 cells per 100 mm dish and treated with STS (1 μM) or etoposide (100 μg/mL). At different time points (0, 3, 6, 9, 12 and 24 hours), the cells were scraped, centrifuged and then lysed in buffer containing 1% NP40. Western blot analysis was performed as previously described (Tesco, G., Koh, Y. H. & Tanzi, R. E., J Biol Chem 278, 46074-80 (2003)). Densitometry analysis was performed on a Macintosh computer using the public domain NIH Image program (developed at the U.S. National Institutes of Health and available on the Internet at http://rsb.info.nih.gov/nih-image/).
Secreted Aβ1-total was measured in the conditioned media of untreated cells or of cells treated with STS or STS plus zVAD using a sensitive ELISA (Wolfe, M. S. et al., Nature 398, 513-7 (1999). At least three different experiments were carried out and each experiment was performed at least in triplicate.

BACE = BACE protein levels by Western blot and densitometry in CAB cells; format: cell-based, Chinese Hamster; details: etoposide (ETO) treatment, CAB cells
Experimental: Chinese Hamster Ovary (CHO) cells expressing APP751 and BACE (CAB), CHO cells expressing full-length APP and wild-type PS1 (CHO-APP751/PS1) or expressing C99 and wild-type PS1 (CHO-CC99/PS1), H4 human neuroglioma cells expressing APP751 (H4-APP751), mouse embryonic fibroblast (MEF), embryonic stem (ES) cells, and human epithelial A431 cells were grown as described previously (Marambaud, P. et al., Embo J 21, 1948-56 (2002); Cai, H. et al., Nat Neurosci 4, 233-4 (2001); Sato, N. et al., Nat Cell Biol 2, 863-70 (2000); Puglielli, L., Ellis, B. C., Saunders, A. J. & Kovacs, D. M., J Biol Chem 278, 19777-83 (2003); Wolfe, M. S. et al., Nature 398, 513-7 (1999)). For the induction of apoptosis, we used staurosporine or etoposide (Calbiochem (EMD Biosciences, San Diego, Calif.)). For Aβ measurements, cells were seeded at the density of 0.5×10^6 cells per well in 6 well plates. After 48 hours, cells were treated with either STS (1 μM) for 6 hours. In order to inhibit caspase activation a sister plate of cells was pre-treated with zVAD ([…], Enzyme Systems Products) for 1 hour before STS treatment. For time-course experiments, cells were seeded at the density of 2×10^6 cells per 100 mm dish and treated with STS (1 μM) or etoposide (100 μg/mL). At different time points (0, 3, 6, 9, 12 and 24 hours), the cells were scraped, centrifuged and then lysed in buffer containing 1% NP40. Western blot analysis was performed as previously described (Tesco, G., Koh, Y. H. & Tanzi, R. E., J Biol Chem 278, 46074-80 (2003)). Densitometry analysis was performed on a Macintosh computer using the public domain NIH Image program (developed at the U.S. National Institutes of Health and available on the Internet at http://rsb.info.nih.gov/nih-image/).
It has been previously shown that overexpression of BACE enhances β-secretase cleavage of APP leading to the accumulation of intracellular C99 (Vassar, R. et al., Science 286, 735-41 (1999)). We first asked whether apoptosis/caspase activation leads to accumulation of C99 owing to increased β-secretase activity.

proteasome = assay: Proteasome inhibition: BACE and nicastrin protein levels by Western blot in H4 cells; format: cell-based, human
Experimental: Densitometric analysis was performed with NIH image and reported in bar graphs (FIG. 8B).

E-cadherin = E-cadherin proteolysis in A431 cells during STS-induced apoptosis (Western blot, C36 antibody); format: cell-based, human; details: then STS 6 hours
Experimental: FIG. 11 provides digitized images and graphs showing that apoptosis enhances γ-secretase activity and levels of γ-secretase complex proteins. FIG. 11a: Apoptosis was induced in CAB, CHO-CC99/PS1 and CHO-APP 751/PS1 by STS treatment for 6 hours with or without zVAD (100 μM). Secreted Aβ1−total was measured by ELISA. […] Each bar represents the mean and SD of quadruplicate determinations. FIG. 11b: Western blot analysis with the antibody, A8717, detected endogenous APP-FL and overexpressed C99 in CHO-CC99/PS1cells, while overexpressed APP-FL and C83 were detected in CHO-APP751/PS1 cells. FIG. 11c: A431 human epithelial cells were pre-incubated for 30 min in the absence (−) or presence (+) of zVAD-FMK (100 μM), L-685,458 (0.5 μM) or GM6001 (2.5 μM). Cells were then treated with STS for 6 hours to induce apoptosis, and cell extracts were probed with anti-E-cadherin C36 antibody. FIG. 11d: Protein levels of γ-secretase complex components were monitored by Western blotting employing the anti-nicastrin, Ab14, PNT2, H2D2 antibodies. Densitometry analysis was performed using NIH image software. Each bar represents the mean and SEM of at least three experiments. FIG. 11e: Nicastrin was transiently transfected in the A431 cells. Western blot analysis for E-cadherin and γ-secretase complex component was performed as in FIG. 11c and FIG. 11d β-tubulin was used as loading control.
To confirm that apoptosis/caspase activation increases γ-secretase activity, we next examined the proteolysis of E-cadherin, another γ-secretase substrate (Marambaud, P. et al., Embo J21, 1948-56 (2002)) during apoptosis. We confirmed that caspase activation enhanced the production of E-Cad/CTF1 (Steinhusen, U. et al., J Biol Chem 276, 4972-80 (2001)), E-Cad/CTF2 (Marambaud, P. et al., 2002) (˜2- and 3-fold increase by densitometry analysis, respectively), and generated E-Cad/CTF3 (Marambaud, P. et al., 2002) (FIG. 11c). […]

Q: `COc1cc([C@@H]2c3cc4c(cc3[C@@H](O[C@@H]3O[C@@H]5CO[C@@H](C)O[C@H]5[C@H](O)[C@H]3O)[C@H]3COC(=O)[C@H]23)OCO4)cc(OC)c1O` [etoposide] was tested. Which “Secreted Aβ1-42” value [1] did it give?
A: increased

Q: What about the “Secreted Aβtotal” value [1] of the same molecule?
A: increased

Q: What about the BACE protein levels (BACE) of the same molecule?
A: increase

Q: For `CC(=O)N[C@@H](CSC(=O)[C@]1([C@@H](O)C(C)C)NC(=O)[C@H](C)[C@@H]1O)C(=O)O` [Lactacystin, lactacystin], which “protein levels of nicastrin” value (proteasome; Lactacystin 10 μM for 24 hrs, medium containing 10% serum) is on record?
A: increased

Q: And the “BACE full length and BACE-CTF levels” value (proteasome; Lactacystin treatment, H4 cells)?
A: did not affect

Q: For `CC(C)C[C@H](NC(=O)[C@H](Cc1ccccc1)C[C@@H](O)[C@H](Cc1ccccc1)NC(=O)OC(C)(C)C)C(=O)N[C@@H](Cc1ccccc1)C(N)=O` [L-685,458], which “generation of E-Cad/CTF2” value (E-cadherin; L-685,458 0.5 μM pre-incubated 30 min) is on record?
A: inhibited

Q: With `CNC(=O)[C@H](Cc1c[nH]c2ccccc12)NC(=O)[C@@H](CC(=O)NO)CC(C)C` [GM6001] as the molecule, how does the “generation of E-Cad/CTF1” value (E-cadherin; GM6001 2.5 μM pre-incubated 30 min) read?
A: inhibited
